Read-outs that look alike come from different tables or passages of the source.
Columns and labels:
[1] = Storage of iron-free precursor in aqueous solution, then labeling, cell binding and internalization; assay type: physicochemical; conditions: storage at 5 °C in an aqueous solution for 6 months
Source text: Such synthesis modules have been specifically designed to enable the versatile and efficient routine production of various radiopharmaceuticals while adhering to GMP requirements. The concept of disposable cassettes pursued in this approach allows the user to label different radionuclides on the same synthesis device without the risk of cross-contamination. The disposable cassettes include all necessary vessels, reagents, and purification columns. The automated process concludes with a final sterile filtration, including a filter integrity test. Iron removal should therefore take place before the actual labeling process. We wanted to verify whether it is possible to establish a stock of an iron-free PSMA-DFO precursor, stored in an aqueous solution at 4 °C in the refrigerator, and to determine its shelf life. This was done by investigating whether the iron-free precursor can be labeled with zirconium-89 after several months of storage without compromising the yield, cell binding, and internalization.

[2] = tested on: PSMA binding sites (PSMA-positive LNCaP cell lines); design: method as in PMID 34370181; conditions: LNCaP cells; cited from earlier work
[3] = tested on: LNCaP tumor xenograft; design: method as in PMID 34370181; conditions: LNCaP tumor xenografts, n = 5, cited from earlier work
[4] = tested on: PSMA (prostate-specific membrane antigen) on prostate cancer cells; design: method as in PMID 34370181; conditions: cited from earlier work
[5] = tested on: PSMA (prostate-specific membrane antigen) on prostate cancer cells; design: method as in PMID 34370181; conditions: cited from earlier work; remark: listed apart in the source
[6] = tested on: LNCaP tumors; design: method as in PMID 34370181; conditions: cited from earlier work
[7] = design: method as in PMID 34370181; conditions: up to 7 days at 37 °C; cited from earlier work
[8] = tested on: PSMA-positive lesions; design: method as in PMID 34326129; conditions: cited from earlier work

| Molecule | Kd [2] | Bmax [2] | tumor/blood ratio ([3]; 4 h after i.v. injection) | tumor/muscle ratio ([3]; 4 h after i.v. injection) | Specific binding as a percentage of the total cellular activity ([4]; 0.5 h) | Specific binding as a percentage of the total cellular activity ([4]; 1 h) | Specific binding as a percentage of the total cellular activity ([4]; 2 h) | Specific binding as a percentage of the total cellular activity ([4]; 3 h) | Specific binding as a percentage of the total cellular activity ([4]; 5 h) | Specific internalization as a percentage of the total cellular activity ([5]; 0.5 h) | Specific internalization as a percentage of the total cellular activity ([5]; 1 h) | Specific internalization as a percentage of the total cellular activity ([5]; 2 h) | Specific internalization as a percentage of the total cellular activity ([5]; 3 h) | Specific internalization as a percentage of the total cellular activity ([5]; 5 h) | also measured |
| --- | --- | --- | --- | --- | --- | --- | --- | --- | --- | --- | --- | --- | --- | --- | --- |
| CC(=O)N(O)CCCCCNC(=O)CCC(=O)N(O)CCCCCNC(=O)CCC(=O)N(O)CCCCCNC(=O)CCC(=O)NCC1CCC(C(=O)NC(Cc2ccc3ccccc3c2)C(=O)NCCCCC(NC(=O)NC(CCC(=O)O)C(=O)O)C(=O)O)CC1 (stereo not shown) [N-sucDFO-PSMA] |  |  |  |  |  |  |  |  |  |  |  |  |  |  | Chemical reactivity, specific binding and internalization after storage [1]: remained unaffected |
| COc1nc(F)ccc1C(=O)NCCCCC(NC(=O)NC(CCC(=O)O)C(=O)O)C(=O)O (stereo not shown) [[^18F]F-JK-PSMA 7] | 5.07 ± 0.45 nM |  |  |  |  |  |  |  |  |  |  |  |  |  |  |
| COc1nc([18F])ccc1C(=O)NCCCCC(NC(=O)NC(CCC(=O)O)C(=O)O)C(=O)O (stereo not shown) [[^18F]F-JK-PSMA 7] |  | 2702 ± 61 fmol/10^6 Cells | 175 ± 30 | 114 ± 14 | 23.8 ± 0.6% | 32.6 ± 0.4% | 38.8 ± 1.3% | 45.2 ± 1.9% | 45.8 ± 0.4% | 4.7 ± 0.4% | 11.1 ± 0.7% | 17.2 ± 1.3% | 20.8 ± 0.6% | 21.8 ± 0.3% |  |
| O=C([O-])CN(CCN(CC(=O)[O-])Cc1cc(CCC(=O)NCCCCCC(=O)NCCCC[C@H](NC(=O)N[C@@H](CCC(=O)O)C(=O)O)C(=O)O)ccc1[O-])Cc1cc(CCC(=O)O)ccc1[O-].[68Ga+3].[OH3+] [[^68Ga]Ga-PSMA 11] | 5.15 ± 0.6 nM | 1746 ± 53 fmol/10^6 Cells | 112 ± 57 | 58 ± 36 | 27.7 ± 0.7% | 35.3 ± 3.1% | 42.0 ± 1.2% | 46.3 ± 2.1% | 48.3 ± 1.2% | 8.0 ± 0.4% | 14.0 ± 1.9% | 20.3 ± 1.5% | 23.3 ± 0.8% | 27.4 ± 1.6% |  |
| CC(=O)N([O-])CCCCCNC(=O)CCC(=O)N([O-])CCCCCNC(=O)CCC(=O)N([O-])CCCCCNC(=O)CCC(=O)NCC1CCC(C(=O)NC(Cc2ccc3ccccc3c2)C(=O)NCCCCC(NC(=O)NC(CCC(=O)O)C(=O)O)C(=O)O)CC1.[89Zr+4] (stereo not shown) [[^89Zr]Zr-PSMA-DFO] | 4.97 ± 0.57 nM | 1428 ± 42 fmol/10^6 Cells |  |  | 29.1 ± 2.1% | 38.5 ± 2.3% | 46.5 ± 1.3% | 48.8 ± 1.0% | 49.4 ± 1.3% | 9.5 ± 0.6% | 15.3 ± 1.0% | 22.3 ± 1.0% | 24.4 ± 0.6% | 30.4 ± 1.3% | Tumor visualization at later time points ([6]; PET scans up to 48 h after injection): clear tumor visualization; Radioactive background radiation in the kidneys and bladder ([6]; after 48 h, mice with LNCaP tumor xenografts): minimal; Ability to visualize tumors compared with [68Ga]Ga-PSMA-11 or [18F]F-JK-PSMA-7 ([6]; early time points (1 h after injection)): similar; Stability in human serum [7]: very high stability; Stability in phosphate-buffered saline (PBS) [7]: very high stability; tumor/blood ratio ([3]; 24 h after i.v. injection): 309 ± 89; tumor/muscle ratio ([3]; 24 h after i.v. injection): 450 ± 38; Detected lesions whose validity was supported (histology, follow-up after radiation therapy, additional imaging) [8]: 14 out of 15; Level of radioactivity in the 15 lesions (SUVmax) versus the original PET scans [8]: significantly higher; Number of PSMA-positive lesions detected ([8]; in 8 out of 14 patients): 15; Patients in whom PSMA-positive lesions were detected ([8]; patients with BCR and initially negative PET scans using the usual tracers): 8 out of 14 |
| [^177Lu]Lu-PSMA 617 | 5.81 ± 0.71 nM | 2021 ± 66 fmol/10^6 Cells |  |  | 16.0 ± 0.2% | 19.7 ± 1.1% | 30.4 ± 1.0% | 35.5 ± 1.0% | 40.7 ± 2.4% | 4.1 ± 0.1% | 6.7 ± 0.1% | 12.8 ± 1.3% | 16.9 ± 0.2% | 22.9 ± 0.9% |  |

— article PMC10780766, “From Bench to Bedside: Patient-Oriented Radiopharmaceutical Development in Nuclear Medicine Based on the Example of [^89Zr]Zr-PSMA-DFO” (Molecules, 2023)
